In ChEMBL document CHEMBL3352007, “Deoxyribonuclease inhibitors” (Eur J Med Chem, 2014):

Experiments:
Deoxyribonuclease-1 [1] = molecular target: T1, Deoxyribonuclease-1 (Homo sapiens, UniProt P24855); assay: Inhibition of DNase 1 (unknown origin) using (FAM)-labeled dsDNA as substrate
T1 sequence (P24855 whole entry): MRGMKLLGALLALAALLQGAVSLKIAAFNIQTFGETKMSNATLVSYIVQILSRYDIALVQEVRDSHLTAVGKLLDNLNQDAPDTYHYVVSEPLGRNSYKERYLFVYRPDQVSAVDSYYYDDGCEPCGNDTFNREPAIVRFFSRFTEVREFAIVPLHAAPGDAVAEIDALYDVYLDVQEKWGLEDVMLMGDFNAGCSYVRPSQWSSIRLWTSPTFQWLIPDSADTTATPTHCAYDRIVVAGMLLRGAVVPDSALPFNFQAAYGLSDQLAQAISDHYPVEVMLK

Deoxyribonuclease-1 [2] = molecular target: T1, Deoxyribonuclease-1; assay: Inhibition of DNase 1 (unknown origin)

IC50 (Deoxyribonuclease-1 [1]) [nM]	IC50 (Deoxyribonuclease-1 [2]) [nM]	Compound
350	–	CN(C)c1ccc(C(=C2C=CC(=[N+](C)C)C=C2)c2ccc(N(C)C)cc2)cc1 [GENTIAN VIOLET]
–	> 300000	O=C(O)c1ccc(Nc2nc(Cl)nc(Cl)n2)cc1-c1c2ccc(=O)cc-2oc2cc(O)ccc12
